In the experiment the target is human β2 adrenergic receptor (Homo sapiens, UniProt P07550). The experiment is described as follows: cell-based. The settings on record: for activation at 0.01 µM: 10 min, read-out: β2: % of isoproterenol activity (increase in cAMP). The protocol: The activity of the test compounds on human β-adrenergic receptors was determined with Chinese hamster ovary (CHO) cells transfected with human β2, or β1 adrenergic receptors. Agonist activity is indicated by increased cAMP levels in the CHO cells. Selectivity of the test compounds for the β3 receptor was assessed by comparison with results in β2 and β1 adrenergic receptor transfected cells.
1). Chinese hamster ovary (CHO) cells transfected with human β2, or β1 adrenergic receptors were used in the assay.
2). Cells were grown to confluent conditions in 24 well plates.
3). Drugs were dissolved in DMSO at a concentration of 10 μM.
4). Cells were incubated with drug at 10 nM concentration for 10 min at 37° C.
5). Cell cAMP concentrations were assayed using a scintillation proximity assay kit from Amersham Corp., Chicago, Ill.
6). Activities for the test compounds are expressed as a percentage of the isoproterenol response.
Production of the CHO cells transfected with human β2, or β1 adrenergic receptors, and compound test procedures utilizing the CHO cells, are described by Emorine et al. in their article "Molecular Characterization of the Human Beta3 -Adrenergic Receptor", Science 1989, 245(8), 1118-1121 and by Muzzin et al. in the article "An Adipose Tissue-Specific Beta3 -Adrenergic Receptor", J. Biol. Chem.1991, 266, 24053-24058.
^a Human β receptors expressed in Chinese hamster ovary cells,
compounds tested at 10 nM, results expressed as % of isoproterenol
activity (increase in cAMP) at 10 μM. EC50 (μM) values
determined for selected compounds.

Setting [1] is: compounds tested at 10 nM, isoproterenol at 10 μM, CHO cells, 10 min at 37° C.

Structures are written as SMILES. Structures can show the parent of a compound that is named as a salt. Where two headings read alike, the source gives them in different places.

Chain of human β2 adrenergic receptor (P07550 whole entry): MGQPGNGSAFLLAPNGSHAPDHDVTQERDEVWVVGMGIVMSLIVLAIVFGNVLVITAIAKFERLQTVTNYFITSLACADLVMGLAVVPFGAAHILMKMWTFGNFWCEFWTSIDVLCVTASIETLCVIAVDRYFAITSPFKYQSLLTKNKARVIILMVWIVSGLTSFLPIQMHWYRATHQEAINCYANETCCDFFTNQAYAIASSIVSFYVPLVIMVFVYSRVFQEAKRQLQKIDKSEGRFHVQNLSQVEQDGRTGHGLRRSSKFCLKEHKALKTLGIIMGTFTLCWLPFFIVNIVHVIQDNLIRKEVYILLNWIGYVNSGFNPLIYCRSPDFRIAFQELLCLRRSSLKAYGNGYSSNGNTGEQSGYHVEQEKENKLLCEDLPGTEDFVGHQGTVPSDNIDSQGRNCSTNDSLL

Consider `COCCOC(=O)C1(C(=O)OCCOC)Oc2ccc(CC(C)NCC(O)c3cccc(Cl)c3)cc2O1` (centres unmarked) [Example 1, 5-{2-[2-(3-Chloro-phenyl)-2-hydroxy-ethylamino]-propyl}-benzo[1,3]dioxole-2,2-dicarboxylic acid bis-(2-methoxy-ethyl) ester hydrochloride salt], for which the activation at 0.01 µM (CHO) worked out at 4%. On the same count and under the same terms, with `CCCCOCCOC(=O)C1(C(=O)OCCOCCCC)Oc2ccc(CC(C)NCC(O)c3cccc(Cl)c3)cc2O1` (centres unmarked) [Example 3, 5-{2-[2-(3-Chloro-phenyl)-2-hydroxy-ethylamino]-propyl}-benzo[1,3]dioxole-2,2-dicarboxylic acid bis-(2-butoxy-ethyl) ester hydrochloride salt] the figure was 0%; with `CC(Cc1ccc2c(c1)OC(C(=O)OCCOc1ccccc1)(C(=O)OCCOc1ccccc1)O2)NCC(O)c1cccc(Cl)c1` (centres unmarked) [Example 4, 5-{2-[2-(3-Chloro-phenyl)-2-hydroxy-ethylamino]-propyl}-benzo[1,3]dioxole-2,2-dicarboxylic acid bis-(2-phenoxy-ethyl) ester hydrochloride salt], 1%.

As for `CCOCCOC(=O)C1(C(=O)OCCOCC)Oc2ccc(CC(C)NCC(O)c3cccc(Cl)c3)cc2O1` (centres unmarked) [Example 5, 5-{2-[2-(3-Chloro-phenyl)-2-hydroxy-ethylamino]-propyl}-benzo[1,3]dioxole-2,2-dicarboxylic acid bis-(2-ethoxy-ethyl) ester hydrochloride salt], the activation at 0.01 µM (CHO) was 4%.

As for `CC(Cc1ccc2c(c1)OC(C(=O)OCCOC(C)(C)C)(C(=O)OCCOC(C)(C)C)O2)NCC(O)c1cccc(Cl)c1` (centres unmarked) [Example 6, 5-{2-[2-(3-Chloro-phenyl)-2-hydroxy-ethylamino]-propyl}-benzo[1,3]dioxole-2,2-dicarboxylic acid bis-(2-tert-butoxy-ethyl) ester], under setting [1], the activation at 0.01 µM came out at 3%. For the compound `CC(Cc1ccc2c(c1)OC(C(=O)O)(C(=O)OCCOC(C)(C)C)O2)NCC(O)c1cccc(Cl)c1` (centres unmarked) [Example 7, 5-{2-[2-(3-Chloro-phenyl)-2-hydroxy-ethylamino]-propyl}-benzo[1,3]dioxole-2,2-dicarboxylic acid (2-tert-butoxy-ethyl) ester], the activation at 0.01 µM under setting [1] was found to be 2%. On the same count and under the same terms, for `CC(C)COCCOC(=O)C1(C(=O)OCCOCC(C)C)Oc2ccc(CC(C)NCC(O)c3cccc(Cl)c3)cc2O1` (centres unmarked) [Example 8, 5-{2-[2-(3-Chloro-phenyl)-2-hydroxy-ethylamino]-propyl}-benzo[1,3]dioxole-2,2-dicarboxylic acid bis-(2-isobutoxy-ethyl) ester] the value was 1%. Regarding `CC(Cc1ccc2c(c1)OC(C(=O)OCc1ccccc1)(C(=O)OCc1ccccc1)O2)NCC(O)c1cccc(Cl)c1` (centres unmarked) [Example 9, 5-{2-[2-(3-Chloro-phenyl)-2-hydroxy-ethylamino]-propyl}-benzo[1,3]dioxole-2,2-dicarboxylic acid bis-(benzyl) ester hydrochloride salt], under “CHO”, the activation at 0.01 µM turned out to be 16%. Same read-out and setting: for `CC(Cc1ccc2c(c1)OC(C(=O)OC1CCCCC1)(C(=O)OC1CCCCC1)O2)NCC(O)c1cccc(Cl)c1` (centres unmarked) [Example 10, 5-{2-[2-(3-Chloro-phenyl)-2-hydroxy-ethylamino]-propyl}-benzo[1,3]dioxole-2,2-dicarboxylic acid bis-(cyclohexyl) ester hydrochloride salt] the value was 0%. `CCCCCCCCOC(=O)C1(C(=O)OCCCCCCCC)Oc2ccc(CC(C)NCC(O)c3cccc(Cl)c3)cc2O1` (centres unmarked) [Example 12, 5-{2-[2-(3-Chloro-phenyl)-2-hydroxy-ethylamino]-propyl}-benzo[1,3]dioxole-2,2-dicarboxylic acid dioctyl ester]: the activation at 0.01 µM under setting [1] was 1%.

With `CCCCCCOC(=O)C1(C(=O)OCCCCCC)Oc2ccc(CC(C)NCC(O)c3cccc(Cl)c3)cc2O1` (centres unmarked) [Example 14, 5-{2-[2-(3-Chloro-phenyl)-2-hydroxy-ethylamino]-propyl}-benzo[1,3]dioxole-2,2-dicarboxylic acid dihexyl ester], the activation at 0.01 µM under setting [1] worked out at 5%.

For the compound `CCCCCCCCCOC(=O)C1(C(=O)OCCCCCCCCC)Oc2ccc(CC(C)NCC(O)c3cccc(Cl)c3)cc2O1` (centres unmarked) [Example 18, 5-{2-[2-(3-Chloro-phenyl)-2-hydroxy-ethylamino]-propyl}-benzo[1,3]dioxole-2,2-dicarboxylic acid dinonyl ester], the activation at 0.01 µM under setting [1] stood at 6%. Consider `CCCCCCCCCCOC(=O)C1(C(=O)OCCCCCCCCCC)Oc2ccc(CC(C)NCC(O)c3cccc(Cl)c3)cc2O1` (centres unmarked) [Example 19, 5-{2-[2-(3-Chloro-phenyl)-2-hydroxy-ethylamino]-propyl}-benzo[1,3]dioxole-2,2-dicarboxylic acid bis-decyl ester], for which, under setting [1], the activation at 0.01 µM is 2%. On the same count and under the same terms, for `CCCCCCCCCCCCOC(=O)C1(C(=O)OCCCCCCCCCCCC)Oc2ccc(CC(C)NCC(O)c3cccc(Cl)c3)cc2O1` (centres unmarked) [Example 20, 5-{2-[2-(3-Chloro-phenyl)-2-hydroxy-ethylamino]-propyl}-benzo[1,3]dioxole-2,2-dicarboxylic acid didodecyl ester] the value was 0%.

The compound `CC(Cc1ccc2c(c1)OC(C(=O)O)(C(=O)OC(C)C)O2)NCC(O)c1cccc(Cl)c1` (centres unmarked) [Example 22, 5-{2-[2-(3-Chloro-phenyl)-2-hydroxy-ethylamino]-propyl}-benzo[1,3]dioxole-2,2-dicarboxylic acid isopropyl ester] displayed an EC50 of 15 nM. Take `CCCOC(=O)COC(=O)C1(C(=O)OCC(=O)OCCC)Oc2ccc(CC(C)NCC(O)c3cccc(Cl)c3)cc2O1` (centres unmarked) [Example 25, 5-{2-[2-(3-Chloro-phenyl)-2-hydroxy-ethylamino]-propyl}-benzo[1,3]dioxole-2,2-dicarboxylic acid bis-propoxycarbonylmethyl ester]: the activation at 0.01 µM under setting [1] came out at 6%. On the same count and under the same terms, with `COC(=O)C(C)OC(=O)C1(C(=O)OC(C)C(=O)OC)Oc2ccc(CC(C)NCC(O)c3cccc(Cl)c3)cc2O1` (centres unmarked) [Example 26, 5-{2-[2-(3-Chloro-phenyl)-2-hydroxy-ethylamino]-propyl}-benzo[1,3]dioxole-2,2-dicarboxylic acid bis-(1-methoxycarbonyl-ethyl) ester] the figure was 7%. Same read-out and setting: with `CC(Cc1ccc2c(c1)OC(C(=O)OCC(=O)OC(C)C)(C(=O)OCC(=O)OC(C)C)O2)NCC(O)c1cccc(Cl)c1` (centres unmarked) [Example 27, 5-{2-[2-(3-Chloro-phenyl)-2-hydroxy-ethylamino]-propyl}-benzo[1,3]dioxole-2,2-dicarboxylic acid bis-isopropoxycarbonylmethyl ester] the figure was 5%; with `CCOC(=O)COC(=O)C1(C(=O)OCC(=O)OCC)Oc2ccc(CC(C)NCC(O)c3cccc(Cl)c3)cc2O1` (centres unmarked) [Example 28, 5-{2-[2-(3-Chloro-phenyl)-2-hydroxy-ethylamino]-propyl}-benzo[1,3]dioxole-2,2-dicarboxylic acid bis-ethoxycarbonylmethyl ester], 2%; with `CCOC(=O)C(C)OC(=O)C1(C(=O)OC(C)C(=O)OCC)Oc2ccc(CC(C)NCC(O)c3cccc(Cl)c3)cc2O1` (centres unmarked) [Example 29, 5-{2-[2-(3-Chloro-phenyl)-2-hydroxy-ethylamino]-propyl}-benzo[1,3]dioxole-2,2-dicarboxylic acid bis-(1-ethoxycarbonyl-ethyl) ester], 2%.

Values taken from patent publication US5914339A, “Substituted 1,3-benzodioxoles” (American Home Products Corporation, priority 1997, dated 1999).
